For test [1], the target named is T1, human capsaicin receptor (Homo sapiens, UniProt Q8NER1).
T1 construct: transfected with the pBK-CMV expression construct encoding the full length human capsaicin receptor using standard methods; expressed in transfected cells
Put plainly: Calcium mobilization assay, determination of antagonist activity. It is filed as cell-based. Particulars: 50% decrease in fluorescence response of cells expressing human capsaicin receptor exposed to capsaicin; Example 6. The source says:
This Example illustrates the preparation of VR1-transfected cells and VR1-containing membrane preparations for use in capsaicin binding assays (Example 5).
A cDNA encoding full length human capsaicin receptor (SEQ ID NO:1, 2 or 3 of U.S. Pat. No. 6,482,611) was subcloned in the plasmid pBK-CMV (Stratagene, La Jolla, Calif.) for recombinant expression in mammalian cells.
Human embryonic kidney (HEK293) cells were transfected with the pBK-CMV expression construct encoding the full length human capsaicin receptor using standard methods. The transfected cells were selected for two weeks in media containing G418 (400 μg/ml) to obtain a pool of stably transfected cells. Independent clones were isolated from this pool by limiting dilution to obtain clonal stable cell lines for use in subsequent experiments.
This Example illustrates representative calcium mobilization assays for use in evaluating test compounds for agonist and antagonist activity.
(§1) Cells transfected with expression plasmids (as described in Example 4) and thereby expressing human capsaicin receptor are seeded and grown to 70-90% confluency in FALCON black-walled, clear-bottomed 96-well plates (#3904, BECTON-DICKINSON, Franklin Lakes, N.J.). The culture medium is emptied from the 96 well plates and FLUO-3 AM calcium sensitive dye (Molecular Probes, Eugene, Oreg.) is added to each well (dye solution: 1 mg FLUO-3 AM, 440 μL DMSO and 440 μl 20% pluronic acid in DMSO, diluted 1:250 in Krebs-Ringer HEPES (KRH) buffer (25 mM HEPES, 5 mM KCl, 0.96 mM NaH2PO4, 1 mM MgSO4, 2 mM CaCl2, 5 mM glucose, 1 mM probenecid, pH 7.4), 50 μl diluted solution per well). Plates are covered with aluminum foil and incubated at 37° C. for 1-2 hours in an environment containing 5% CO2. After the incubation, the dye is emptied from the plates, and the cells are washed once with KRH buffer, and resuspended in KRH buffer.
To measure the ability of a test compound to agonize or antagonize a calcium mobilization response in cells expressing capsaicin receptors to capsaicin or other vanilloid agonist, the EC50 of the agonist capsaicin is first determined. An additional 20 μl of KRH buffer and 1 μl DMSO is added to each well of cells, prepared as described above. 100 μl capsaicin in KRH buffer is automatically transferred by the FLIPR instrument to each well. Capsaicin-induced calcium mobilization is monitored using either FLUOROSKAN ASCENT (Labsystems; Franklin, Mass.) or FLIPR (fluorometric imaging plate reader system; Molecular Devices, Sunnyvale, Calif.) instruments. Data obtained between 30 and 60 seconds after agonist application are used to generate an 8-point concentration response curve, with final capsaicin concentrations of 1 nM to 3 μM. […] software (Synergy Software, Reading, Pa.) is used to fit the data to the equation: y=a*(1/(1+(b/x)^c)) to determine the 50% excitatory concentration (EC50) for the response. In this equation, y is the maximum fluorescence signal, x is the concentration of the agonist or antagonist (in this case, capsaicin), a is the Emax, b corresponds to the EC50 value and c is the Hill coefficient. Determination of Agonist Activity
Test compounds are dissolved in DMSO, diluted in 20 μl KRH buffer so that the final concentration of test compounds in the assay well is between 1 μM and 5 μM, and added to cells prepared as described above. The 96 well plates containing prepared cells and test compounds are incubated in the dark, at room temperature for 0.5 to 6 hours. It is important that the incubation not continue beyond 6 hours. Just prior to determining the fluorescence response, 100 μl capsaicin in KRH buffer at twice the EC50 concentration determined as described above is automatically added by the FLIPR instrument to each well of the 96 well plate for a final sample volume of 200 μl and a final capsaicin concentration equal to the EC50. The final concentration of test compounds in the assay wells is between 1 μM and 5 μM.

The target in test [2] is T1, human capsaicin receptor. Put plainly: Calcium mobilization assay, agonist response. It is filed as cell-based. Conditions: capsaicin positive control, calcium mobilization in cells expressing human capsaicin receptor; read-out: approximate EC90 concentration. The method, then: as §1, with “Plates are covered with aluminum foil and incubated at 37° C. for 1-2 hours in an environment containing 5% CO2. After the incubation, the dye is emptied from the plates, and the cells are washed once with KRH buffer, and resuspended in KRH buffer.” left out
To measure the ability of a test compound to agonize or antagonize a calcium mobilization response in cells expressing capsaicin receptors to capsaicin or other vanilloid agonist, the EC50 of the agonist capsaicin is first determined. […] Capsaicin-induced calcium mobilization is monitored using either FLUOROSKAN ASCENT (Labsystems; Franklin, Mass.) or FLIPR (fluorometric imaging plate reader system; Molecular Devices, Sunnyvale, Calif.) instruments. […] In this equation, y is the maximum fluorescence signal, x is the concentration of the agonist or antagonist (in this case, capsaicin), a is the Emax, b corresponds to the EC50 value and c is the Hill coefficient. […]
In general terms: Calcium assays in cells follow changes in intracellular calcium, usually with a dye or a luminescent sensor.

For orientation: IC50 means the concentration at which inhibition is half-maximal.

T1 sequence (Q8NER1 whole entry): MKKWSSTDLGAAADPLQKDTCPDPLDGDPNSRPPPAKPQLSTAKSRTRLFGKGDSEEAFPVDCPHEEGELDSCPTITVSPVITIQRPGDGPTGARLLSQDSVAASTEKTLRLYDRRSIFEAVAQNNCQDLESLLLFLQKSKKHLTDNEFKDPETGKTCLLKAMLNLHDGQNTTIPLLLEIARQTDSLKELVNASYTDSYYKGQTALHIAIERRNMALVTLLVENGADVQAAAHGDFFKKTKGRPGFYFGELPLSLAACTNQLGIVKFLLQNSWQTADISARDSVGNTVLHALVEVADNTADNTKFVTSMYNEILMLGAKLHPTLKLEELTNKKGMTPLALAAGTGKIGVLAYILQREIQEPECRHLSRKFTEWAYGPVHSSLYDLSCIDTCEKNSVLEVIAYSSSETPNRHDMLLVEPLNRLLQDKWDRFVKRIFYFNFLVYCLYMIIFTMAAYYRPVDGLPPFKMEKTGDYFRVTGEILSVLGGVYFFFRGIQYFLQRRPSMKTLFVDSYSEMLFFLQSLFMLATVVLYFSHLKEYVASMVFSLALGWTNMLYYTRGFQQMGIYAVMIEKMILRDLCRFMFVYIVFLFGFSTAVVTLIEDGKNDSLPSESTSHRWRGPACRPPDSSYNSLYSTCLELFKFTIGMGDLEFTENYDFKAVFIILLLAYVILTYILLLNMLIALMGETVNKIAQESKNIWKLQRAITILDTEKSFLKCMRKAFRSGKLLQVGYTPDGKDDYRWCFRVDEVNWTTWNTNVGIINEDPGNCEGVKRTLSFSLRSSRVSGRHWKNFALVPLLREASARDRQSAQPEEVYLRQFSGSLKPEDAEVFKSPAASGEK

On to `CC(C)(C)c1ccc(Nc2cc(-c3ccc(Cl)cc3)ncn2)cc1` [Compound 1, (4-tert-Butyl-phenyl)-[6-(4-chloro-phenyl)-pyrimidin-4-yl]-amine], for which the IC50 at human capsaicin receptor [1] is not above 1 µM. The same measure, in the same setting: the value for `COc1ccccc1-c1cc(Nc2ccc(C(C)(C)C)cc2)ncn1` [Compound 2, (4-tert-Butyl-phenyl)-[6-(2-meth-oxy-phenyl)-pyrimidin-4-yl]-amine] was not above 1 µM; that for `COc1cccc(-c2cc(Nc3ccc(C(C)(C)C)cc3)ncn2)c1` [Compound 3, (4-tert-Butyl-phenyl)-[6-(3-meth-oxy-phenyl)-pyrimidin-4-yl]-amine] was not above 1 µM. As for `COc1ccc(-c2cc(Nc3ccc(C(C)(C)C)cc3)ncn2)cc1` [Compound 4, (4-tert-Butyl-phenyl)-[6-(4-meth-oxy-phenyl)-pyrimidin-4-yl]-amine], the IC50 on human capsaicin receptor [1] is not above 1 µM.

For `CC(C)(C)c1ccc(Nc2cc(-c3ccccc3C(F)(F)F)ncn2)cc1` [Compound 5, (4-tert-Butyl-phenyl)-[6-(2-tri-fluoromethyl-phenyl)-pyri-midin-4-yl]-amine], on human capsaicin receptor [1], the IC50 is not above 1 µM. `CC(C)(C)c1ccc(Nc2cc(-c3cccc(F)c3)ncn2)cc1` [Compound 6, (4-tert-Butyl-phenyl)-[6-(3-fluoro-phenyl)-pyrimidin-4-yl]-amine]: the IC50 at human capsaicin receptor [1] was not above 1 µM. On the same count and under the same terms, then `Cc1cccc(-c2cc(Nc3ccc(C(C)(C)C)cc3)ncn2)c1` [Compound 7, (4-tert-Butyl-phenyl)-(6-m-tolyl-pyrimidin-4-yl)-amine], with not above 1 µM.

Consider `CC(C)(C)c1ccc(Nc2cc(-c3cccc(OC(F)(F)F)c3)ncn2)cc1` [Compound 8, (4-tert-Butyl-phenyl)-[6-(3-tri-fluoromethoxy-phenyl)-pyri-midin-4-yl]-amine], for which the 50% inhibitory concentration (IC50) on human capsaicin receptor [1] was not above 1 µM. Still for that read-out and setting: the value for `CCOc1cccc(-c2cc(Nc3ccc(C(C)(C)C)cc3)ncn2)c1` [Compound 9, (4-tert-Butyl-phenyl)-[6-(3-eth-oxy-phenyl)-pyrimidin-4-yl]-amine] was not above 1 µM; that for `COc1cccc(-c2ncnc(Nc3ccc(C(C)(C)C)cc3)c2C)c1` [Compound 10, (4-tert-Butyl-phenyl)-[6-(3-meth-oxy-phenyl)-5-methyl-pyrimidin-4-yl]-amine] was not above 1 µM. Same read-out and setting: then `COc1cccc(-c2nc(COCC(C)C)nc(Nc3ccc(C(C)(C)C)cc3)n2)c1` [Compound 11, (4-tert-Butyl-phenyl)-[4-iso-butoxymethyl-6-(3-meth-oxy-phenyl)-[1,3,5]tri-azin-2-yl]-amine], with not above 1 µM; and `CCc1c(Nc2ccc(C(C)(C)C)cc2)ncnc1-c1cccc(OC)c1` [Compound 12, (4-tert-Butyl-phenyl)-[5-ethyl-6-(3-meth-oxy-phenyl)-pyrimi-din-4-yl]-amine], with not above 1 µM. On the same count and under the same terms, then `CCc1c(Nc2ccc(C(F)(F)F)cc2)ncnc1-c1cccc(OC)c1` [Compound 13, [5-Ethyl-6-(3-methoxy-phenyl)-pyrimidin-4-yl]-(4-tri-fluoromethyl-phenyl)-amine], with not above 1 µM; and `COc1cccc(-c2nc(C)nc(Nc3ccc(C(C)(C)C)cc3)c2C)c1` [Compound 14, (4-tert-Butyl-phenyl)-[6-(3-meth-oxy-phenyl)-2,5-di-methyl-pyrimidin-4-yl]-amine], with not above 1 µM; and `COc1cccc(-c2nc(C)nc(Nc3ccc(C(F)(F)F)cc3)c2C)c1` [Compound 15, [6-(3-Methoxy-phenyl)-2,5-di-methyl-pyrimidin-4-yl]-(4-tri-fluoromethyl-phenyl)-amine], with not above 1 µM. For the molecule `COc1cncc(-c2ncnc(Nc3ccc(C(C)(C)C)cc3)c2C)c1` [Compound 16, (4-tert-Butyl-phenyl)-[6-(5-meth-oxy-pyridin-3-yl)-5-meth-yl-pyrimidin-4-yl]-amine], at human capsaicin receptor [1], the IC50 was not above 1 µM. Same read-out and setting: the value for `COc1cccc(-c2ncnc(Nc3ccc(C(C)(C)C)cc3)c2N)c1` [Compound 17, N^4-(4-tert-Butyl-phenyl)-6-(3-meth-oxy-phenyl)-pyrimidine-4,5-di-amine] was not above 1 µM; that for `COc1cccc(-c2nc(N3CCOCC3)nc(Nc3ccc(C(F)(F)F)cc3)c2C)c1` [Compound 18, [6-(3-Methoxy-phenyl)-5-meth-yl-2-morpholin-4-yl-pyrimidin-4-yl]-(4-tri-fluoromethyl-phenyl)-amine] was not above 1 µM. Consider `COc1cccc(-c2nc(N3CCOCC3)nc(Nc3ccc(C(C)(C)C)cc3)c2C)c1` [Compound 19, (4-tert-Butyl-phenyl)-[6-(3-meth-oxy-phenyl)-5-methyl-2-mor-pholin-4-yl-pyrimidin-4-yl]-amine], for which, on human capsaicin receptor [1], the IC50 was not above 1 µM. With `CC(C)(C)c1ccc(Nc2cc(-c3ccccc3)ncn2)cc1` [Compound 20, (4-tert-Butyl-phenyl)-(6-phenyl-pyrimidin-4-yl)-amine], on human capsaicin receptor [1], the IC50 is not above 1 µM.

On to `COc1ccc(-c2cc(Nc3ccc(C(C)(C)C)cc3)ncn2)cc1OC` [Compound 21, (4-tert-Butyl-phenyl)-[6-(3,4-di-methoxy-phenyl)-pyrimidin-4-yl]-amine], for which, on human capsaicin receptor [1], the IC50 is not above 1 µM.

Turning to `COc1cccc(-c2ncnc(Nc3ccc(C(F)(F)F)cc3)c2N)c1` [Compound 23, 6-(3-Methoxy-phenyl)-N^4-(4-tri-fluoromethyl-phenyl)-pyrimi-dine-4,5-diamine], the IC50 on human capsaicin receptor [1] was not above 1 µM. The same measure, in the same setting: the value for `COc1cccc(-c2ncnc(Nc3ccc(C4CCCCC4)cc3)c2N)c1` [Compound 24, N^4-(4-Cyclohexyl-phenyl)-6-(3-meth-oxy-phenyl)-pyrimi-dine-4,5-diamine] was not above 1 µM.

Take `COc1cc(CNC(=O)CCCC/C=C/C(C)C)ccc1O` [capsaicin]: at human capsaicin receptor [2], the EC90 is approximately 0.1 µM.

These data come from patent US20060229308A1, “Substituted pyrirmidin-4-ylamine analogues as vanilloid receptor ligands” (Neurogen Corporation, priority 2003, published 2006).
